From ChEMBL document CHEMBL1201862, “PubChem BioAssay data set” (2004)
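Assay format: 96-well plates, 48-hour exposure. GI50 marks 50% less growth.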 Calls of active or inactive are those of the source. No stated cut-off is given here; in the data, active = GI50 up to about 1.1 µM and inactive = higher.

What was measured:
Experiment in all cases: NCI anticancer screen, dose series, 48 h
786-0 = test system: 786-0
A498 = test system: A498
A549 = test system: A549
ACHN = test system: ACHN
BT-549 = test system: BT-549
CAKI-1 = test system: CAKI-1
CCRF-CEM = test system: CCRF-CEM
COLO 205 = test system: COLO 205
DU-145 = test system: DU-145
EKVX = test system: EKVX
HCC 2998 = test system: HCC 2998
HCT-116 = test system: HCT-116
HCT-15 = test system: HCT-15
HL-60 = test system: HL-60
HOP-62 = test system: HOP-62
HOP-92 = test system: HOP-92
HT-29 = test system: HT-29
Hs-578T = test system: Hs-578T
IGROV-1 = test system: IGROV-1
K562 = test system: K562
KM12 = test system: KM12
LOX IMVI = test system: LOX IMVI
M14 = test system: M14
MCF7 = test system: MCF7
MDA-MB-231 = test system: MDA-MB-231
MDA-MB-435 = test system: MDA-MB-435
MDA-N = test system: MDA-N
MOLT-4 = test system: MOLT-4
Malme-3M = test system: Malme-3M
NCI-H226 = test system: NCI-H226
NCI-H23 = test system: NCI-H23
NCI-H460 = test system: NCI-H460
NCI-H522 = test system: NCI-H522
NCI/ADR-RES = test system: NCI/ADR-RES
OVCAR-3 = test system: OVCAR-3
OVCAR-4 = test system: OVCAR-4
OVCAR-5 = test system: OVCAR-5
OVCAR-8 = test system: OVCAR-8
PC-3 = test system: PC-3
RPMI-8226 = test system: RPMI-8226
SF-268 = test system: SF-268
SF-295 = test system: SF-295
SF-539 = test system: SF-539
SK-MEL-28 = test system: SK-MEL-28
SK-MEL-2 = test system: SK-MEL-2
SK-MEL-5 = test system: SK-MEL-5
SK-OV-3 = test system: SK-OV-3
SN12C = test system: SN12C
SNB-19 = test system: SNB-19
SR = test system: SR
SW-620 = test system: SW-620
T47D = test system: T47D
TK-10 = test system: TK-10
U-251 = test system: U-251
UACC-257 = test system: UACC-257
UACC-62 = test system: UACC-62
UO-31 = test system: UO-31
SNB-75 = test system: SNB-75

Measured: GI50

OCCCc1cc(O)c2c(c1)C(CO)C(c1ccc(O)c(O)c1)O2 (configuration not stated)
> 100 µM: HCT-15
inactive: 786-0 > 100 µM | A498 > 100 µM | A549 > 100 µM | ACHN > 100 µM | BT-549 > 100 µM | CAKI-1 > 100 µM | CCRF-CEM > 100 µM | COLO 205 > 100 µM | DU-145 > 100 µM | EKVX > 100 µM | HCC 2998 > 100 µM | HCT-116 > 100 µM | HL-60 > 100 µM | HOP-62 > 100 µM | HOP-92 > 100 µM | HT-29 > 100 µM | Hs-578T > 100 µM | IGROV-1 > 100 µM | K562 > 100 µM | KM12 > 100 µM | LOX IMVI > 100 µM | M14 76.6 µM | MCF7 > 100 µM | MDA-MB-231 > 100 µM | MDA-MB-435 > 100 µM | MDA-N > 100 µM | MOLT-4 > 100 µM | Malme-3M > 100 µM | NCI-H226 > 100 µM | NCI-H23 > 100 µM | NCI-H460 > 100 µM | NCI-H522 48.8 µM | NCI/ADR-RES > 100 µM | OVCAR-3 > 100 µM | OVCAR-4 > 10 µM | OVCAR-5 > 100 µM | OVCAR-8 > 100 µM | PC-3 > 100 µM | RPMI-8226 > 10 µM | SF-268 > 100 µM | SF-295 > 100 µM | SF-539 > 100 µM | SK-MEL-28 > 100 µM | SK-MEL-2 > 100 µM | SK-MEL-5 > 100 µM | SK-OV-3 > 100 µM | SN12C > 100 µM | SNB-19 > 100 µM | SR > 100 µM | SW-620 > 100 µM | T47D 80.2 µM | TK-10 > 100 µM | U-251 > 100 µM | UACC-257 > 100 µM | UACC-62 > 100 µM | UO-31 > 100 µM

COc1ccc(C(c2ccccc2)N2C(=O)CCC2C(=O)O)cc1OC (configuration not stated)
inactive: 786-0 > 100 µM | A498 > 100 µM | A549 > 100 µM | ACHN > 100 µM | BT-549 > 100 µM | CAKI-1 > 100 µM | CCRF-CEM > 100 µM | COLO 205 > 100 µM | DU-145 > 100 µM | EKVX > 100 µM | HCC 2998 > 100 µM | HCT-116 > 100 µM | HL-60 > 100 µM | HOP-62 > 100 µM | HOP-92 > 100 µM | HT-29 > 100 µM | Hs-578T > 100 µM | IGROV-1 > 100 µM | K562 > 100 µM | KM12 > 100 µM | LOX IMVI > 100 µM | M14 > 100 µM | MCF7 > 100 µM | MDA-MB-231 > 100 µM | MDA-MB-435 > 100 µM | MDA-N > 100 µM | MOLT-4 > 100 µM | Malme-3M > 100 µM | NCI-H226 > 100 µM | NCI-H23 > 100 µM | NCI-H460 > 100 µM | NCI-H522 > 100 µM | NCI/ADR-RES > 100 µM | OVCAR-3 > 100 µM | OVCAR-4 > 100 µM | OVCAR-5 > 100 µM | OVCAR-8 > 100 µM | PC-3 > 100 µM | RPMI-8226 > 100 µM | SF-268 > 100 µM | SF-295 > 100 µM | SF-539 > 100 µM | SK-MEL-28 14 µM | SK-MEL-2 > 100 µM | SK-MEL-5 > 100 µM | SK-OV-3 > 100 µM | SN12C > 100 µM | SNB-19 > 100 µM | SNB-75 > 100 µM | SR > 100 µM | SW-620 > 100 µM | T47D > 100 µM | TK-10 > 100 µM | U-251 > 100 µM | UACC-257 > 100 µM | UACC-62 > 100 µM | UO-31 > 100 µM
> 100 µM: HCT-15

O=C1c2cccnc2S(=O)(=O)N1c1ccc([N+](=O)[O-])cc1
inactive: 786-0 > 100 µM | A498 > 100 µM | A549 > 100 µM | ACHN > 100 µM | BT-549 > 100 µM | CAKI-1 > 100 µM | CCRF-CEM 68.5 µM | COLO 205 > 100 µM | DU-145 > 100 µM | EKVX > 100 µM | HCC 2998 > 100 µM | HCT-116 > 100 µM | HL-60 24 µM | HOP-62 > 100 µM | HOP-92 > 100 µM | HT-29 > 100 µM | Hs-578T 64 µM | IGROV-1 > 100 µM | KM12 > 100 µM | LOX IMVI > 100 µM | M14 > 100 µM | MCF7 > 100 µM | MDA-MB-231 > 100 µM | MDA-MB-435 > 100 µM | MDA-N > 100 µM | MOLT-4 > 100 µM | Malme-3M 51.8 µM | NCI-H226 > 100 µM | NCI-H23 > 100 µM | NCI-H460 > 100 µM | NCI-H522 24.9 µM | NCI/ADR-RES > 100 µM | OVCAR-3 > 100 µM | OVCAR-4 > 100 µM | OVCAR-5 > 100 µM | OVCAR-8 > 100 µM | PC-3 > 100 µM | RPMI-8226 57 µM | SF-268 > 100 µM | SF-295 > 100 µM | SF-539 > 100 µM | SK-MEL-28 > 100 µM | SK-MEL-2 > 100 µM | SK-MEL-5 > 100 µM | SK-OV-3 > 100 µM | SN12C > 100 µM | SNB-19 > 100 µM | SNB-75 > 100 µM | SR 29.9 µM | SW-620 > 100 µM | T47D > 100 µM | TK-10 > 100 µM | U-251 > 100 µM | UACC-257 > 100 µM | UACC-62 > 100 µM | UO-31 > 100 µM
> 100 µM: HCT-15
